In patent US6403607B1, “Sulfonamide derivatives and drugs containing the same as the active ingredient” (priority 1998, dated 2002):
Converted amounts (≈) assume the structure as drawn.

Tests used:
[1] = system: ethanol ulcer in the gland gastric region; assay: Ethanol ulcer; assay type: in vivo; conditions: rats fasted 24 hours, drug oral, 99.5% ethanol 1 ml/rat after one hour, size of ulcer one hour later; dose not given
Description: Ethanol Ulcer Rats were fasted for 24 hours and orally administered with a drug. After one hour, 99.5% ethanol (1 ml/rat) was fed through oral administration. After one hour of ethanol administration, the abdomens of the rats were dissected and the size of ulcer in the gland gastric region was measured for each rat.

gastric acid secretion = assay: Acid-secretion suppression (pyloric ligation); assay type: in vivo, Rats; conditions: pyloric region ligated, drug to the duodenum, gastric juice after four hours, total acidity by titration; dose not given
Description: Acid-secretion Suppression Rats were fasted for 24 hours and the abdomens of the rats were dissected under anesthesia with ether. The pyloric region was ligated and a drug was administered to the duodenum. After four hours, the stomach was removed and the gastric juice was collected to evaluate the acid-secretion suppresssing effects by measuring the total acidity of the gastric juice through titration.

H/K-ATPase = H/K-ATPase (Oryctolagus cuniculus, UniProt P27112); assay: H/K-ATPase inhibition; assay type: biochemical; conditions: pH 7.4, H/K-ATPase from rabbit gastric mucous membrane
Sequence of H/K-ATPase (P27112 whole entry): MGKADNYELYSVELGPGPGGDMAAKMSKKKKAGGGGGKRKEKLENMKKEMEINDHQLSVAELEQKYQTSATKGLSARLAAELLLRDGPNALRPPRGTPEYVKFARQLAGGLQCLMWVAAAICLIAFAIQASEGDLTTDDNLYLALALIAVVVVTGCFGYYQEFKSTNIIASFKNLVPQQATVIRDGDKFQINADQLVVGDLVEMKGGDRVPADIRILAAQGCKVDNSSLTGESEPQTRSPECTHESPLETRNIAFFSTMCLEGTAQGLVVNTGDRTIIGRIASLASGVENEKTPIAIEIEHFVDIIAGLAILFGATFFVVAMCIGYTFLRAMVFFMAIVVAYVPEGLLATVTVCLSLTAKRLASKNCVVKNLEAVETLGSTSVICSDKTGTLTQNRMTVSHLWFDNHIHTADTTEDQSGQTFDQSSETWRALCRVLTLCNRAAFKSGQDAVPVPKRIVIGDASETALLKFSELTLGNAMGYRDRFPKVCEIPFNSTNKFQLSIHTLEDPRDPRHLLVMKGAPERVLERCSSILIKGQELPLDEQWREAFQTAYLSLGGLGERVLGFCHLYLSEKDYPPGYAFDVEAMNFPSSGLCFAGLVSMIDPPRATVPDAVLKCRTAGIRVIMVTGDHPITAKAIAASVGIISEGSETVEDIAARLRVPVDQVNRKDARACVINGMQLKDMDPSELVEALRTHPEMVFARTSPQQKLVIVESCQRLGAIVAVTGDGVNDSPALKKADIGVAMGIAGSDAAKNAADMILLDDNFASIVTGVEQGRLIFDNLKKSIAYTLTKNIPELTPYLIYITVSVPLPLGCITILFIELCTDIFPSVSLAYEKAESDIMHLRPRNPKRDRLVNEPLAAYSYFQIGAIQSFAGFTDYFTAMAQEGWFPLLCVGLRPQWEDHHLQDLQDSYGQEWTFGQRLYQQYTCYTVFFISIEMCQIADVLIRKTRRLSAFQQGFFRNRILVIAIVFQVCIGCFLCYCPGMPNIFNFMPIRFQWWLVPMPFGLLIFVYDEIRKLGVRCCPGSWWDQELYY
Sequence of H/K-ATPase (P18597 whole entry partner): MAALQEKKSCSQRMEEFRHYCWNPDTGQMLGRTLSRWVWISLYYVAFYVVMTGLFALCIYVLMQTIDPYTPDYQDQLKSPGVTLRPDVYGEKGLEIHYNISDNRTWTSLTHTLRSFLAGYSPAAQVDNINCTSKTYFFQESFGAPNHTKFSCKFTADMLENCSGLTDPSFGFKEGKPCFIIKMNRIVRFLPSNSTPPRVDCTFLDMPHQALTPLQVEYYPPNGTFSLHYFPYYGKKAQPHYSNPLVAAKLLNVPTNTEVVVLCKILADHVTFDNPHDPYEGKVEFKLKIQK
Description: H/K-ATPase Inhibition The inhibitory effect was measured under pH 7.4, by using H/K-ATPase isolated and purified from the rabbit gastric mucous membrane.

Helicobacter pylori = assay: Anti-Helicobacter-pylori action (agar plate dilution MIC); assay type: cell-based; conditions: Helicobacter pylori; clinically isolated 10 bacterial strains, agar plate dilution method; read-out: MIC
Description: Anti-Helicobacter-pylori Action
Using clinically isolated 10 bacterial strains, the minimum inhibitory concentration (MIC) was measured according to the agar plate dilution method.

rat red blood cell = assay: Hemolytic action; assay type: cell-based; conditions: 10% rat red blood cell stock, 1% DMSO containing saline, 30 minutes at 37° C., absorbance 540 nm
Description: Hemolytic Action […] After incubation for 30 minutes at, 37° C., the mixture was centrifugally separated and the supernatant was obtained. The absorbance (540 nm) of the supernatant was measured. The hemolysis ratio was calculated.

Row | SMILES | IC50 (H/K-ATPase) [nM] | MIC (Helicobacter pylori) [µg/mL] | Suppression [1] [%] | Suppression (gastric acid secretion) [%] | HC50 (rat red blood cell) [µg/mL]
1 | CCCCCCCCS(=O)(=O)N(CCOCCN)c1ccccc1NCCOc1ccc(Cl)cc1 [Example 26, N-[2-(2-Amino)ethoxyethyl]-N-(1-octanesulfonyl)-N′-[2-(4-chlorophenoxy)ethyl]-o-phenylenediamine] | 2100 | – | 98 | 82 | –
2 | NCCOCCN(c1ccccc1NCCOc1ccc(Cl)cc1)S(=O)(=O)c1ccc(Br)cc1 [Example 43, N-[2-(2-Amino)ethoxyethyl]-N-(4-bromobenzenesulfonyl)-N′-[2-(4-chlorophenoxy)ethyl]-o-phenylenediamine] | – | – | 78 | 80 | >100
3 | NCCOCCN(c1ccccc1N(CCOc1ccc(Cl)cc1)Cc1ccccc1)S(=O)(=O)c1ccc(Cl)cc1 [Example 70, N-[2-(2-Amino)ethoxyethyl]-N-(4-chlorobenzenesulfonyl)-N′-benzyl-N′-[2-(4-chlorophenoxy)ethyl]-o-phenylenediamine] | 1100 | 6.25 to 12.5 (≈ 10.2 to 20.3 µM) | 96 | 81 | –

More lines, main results first:

Row | IC50 (H/K-ATPase) [nM] | MIC (Helicobacter pylori) [µg/mL] | SMILES | Suppression [1] [%] | Suppression (gastric acid secretion) [%] | HC50 (rat red blood cell) [µg/mL]
4 | 49400 | 50 to 100 (≈ 106 to 213 µM) | CCCCS(=O)(=O)N(CCOCCN)c1ccccc1NCCOc1ccc(Cl)cc1 [Example 21] | 99 | 76 | 71.1
5 | 2000 | – | NCCOCCN(c1cccc2c1N(CCOc1ccc(Cl)cc1)CCC2)S(=O)(=O)c1ccc(Cl)cc1 [Example 140, 8-[N-[2-(2-Aminoethoxy)ethyl]-N-(4-chlorobenzenesulfonyl)]amino-1-[2-(4-chlorophenoxy)ethyl]-1,2,3,4-tetrahydroquinone] | 94 | 85 | –
